Experiment [1] has as its system LN686, FADU, and OSC19 cells. Put plainly: Cell counting in 3D-mimic 2D culture (PCP or UAP). It is filed as cell-based, human. The protocol: Cells were cultured in 96-well poly(poly-2-hydroxyethyl methacrylate [HEMA])-coated plates (PCPs) or ultra-low attached plates (UAPs). Control IgG1 (25 μg/ml), cixutumumab (25 μg/ml), PP2 (10 μM), and an integrin β3 neutralizing antibody B3A (10 μg/ml) were diluted in culture media containing 10% FBS or IGF-1 and treated alone or in combination. To examine the effect on cancer cell proliferation, a 3-(4,5-dimethylthiazol-2-yl)-2,5-diphenyltetrazolium bromide (MTT) or 3-(4,5-dimethylthiazol-2-yl)-5-(3-carboxymethoxyphenyl)-2-(4-sulfophenyl)-2H-tetrazolium (MTS) assay was performed, and to evaluate the effect on anchorage-independent colony formation, a soft agar colony formation assay was performed according to a method in our previous report (Morgillo et al., 2006).
The PCPs were prepared according to a previously reported method (Fukazawa et al., 1995). In brief, tissue culture plates were collated twice with poly-(HEMA) (10 mg/ml in 95% ethanol) at 37° C. and then washed with phosphate-buffered saline (PBS) several times.
Since cell growth rates could be different under each set of culture conditions, the present inventor counted the cells at distinct culture periods and depicted the results in FIG. 6. The values were represented as mean±standard deviation (SD), and a statistical significance was evaluated using two-sided Student t test (*P<0.05; **P<0.01).

A further experiment deals with HNSCC and NSCLC cells. Put plainly: Soft agar colony formation assay. It is filed as cell-based, human. The protocol:
To evaluate the effect on anchorage-independent colony formation, cells were suspended in 0.4% agar in media at a density of 2×10^3 cells per well, replated in 12-well plates that have been pre-coated with 0.8% agar, and cultured in growth medium containing cixutumumab (25 μg/ml) for 2-6 weeks. Cells were stained with 0.1% Coomassie brilliant blue in PBS, and the colonies >0.2 mm in diameter were counted. Independent experiments were repeated three times.
Because cells grown in the 3D environment might differ from cells growing in PCPs and UAPs, the present inventor evaluated the effects of cixutumumab on cell growth in soft agar, a 3D culture system. 10 HNSCC and 6 NSCLC cells were cultured in soft agar for 4 to 6 weeks in the presence or absence of cixutumumab (25 μg/ml).

In the next experiment the test system is LN686 tumor xenografts. Put plainly: LN686 xenograft, cixutumumab and Ad-CSK. It is filed as in vivo, mouse. Conditions: after 21 days. On the procedure: LN686, UMSCC38, H226B, or A549m cells (1×10^6 cells/mouse in 100 μl of PBS) were subcutaneously injected into nude mice at a single dorsal flank site (6-9 mice per group). For HNSCC patient-derived tumor xenografts, primary human tumor specimens were collected from an untreated patient who underwent lobectomies of squamous carcinoma of the oral cavity. The tumors were cut into small pieces with a size of 2-mm^3 and subcutaneously implanted into the nude mice (one piece per mouse). At 0 day (the time point when tumor size reached to 80 to 100 mm^3) mice were treated with cixutumumab (10 mg/kg, i.p., once or twice a week), Ad-EV (3×10^11 pfu, intratumoral injection, once a week), Ad-CSK (3×10^11 pfu, intratumoral injection, once a week), siCon, siintegrin β3 ([…], i.p., once a week), dasatinib (20 mg/kg, oral gavage, daily), cixutumumab and Ad-CSK, or cixutumumab and dasatinib.
To further determine the effects of inhibiting integrin β3/Src signaling on antitumor activities of cixutumumab, an adenovirus expressing c-Src tyrosine kinase that phosphorylates the autoinhibitory tyrosine 527 was used (Yeatman, 2004). […]

This is an account of results in patent US20140341922A1, “Method for Overcoming Tolerance to Targeted Anti-Cancer Agent” (SUN R&DB Foundation, priority 2011, published 2014).

Turning to “cixutumumab: humanized mAb targeting IGF-1R, provided by ImClone Systems”, the “growth rates vs control cells” value was “no difference” in experiment [1] (LN686 and FADU cells); “significantly slower growth rates” in experiment [1] (OSC19 cells). The “colony formation in soft agar” value with HNSCC and NSCLC cells (OSC19 and A549 cells, 3D system) was “concentration-dependent inhibitory effects”. Moreover, in the experiment on HNSCC and NSCLC cells (sensitive NSCLC and HNSCC lines vs resistant and mildly sensitive lines, 25 μg/ml, 4 to 6 weeks), the “colonies formed in soft agar” value was “significantly fewer colonies”. The “mean tumor weight compared to a control group” value in the experiment on LN686 tumor xenografts is 96%.
